US8226943B2, “Antibodies to notch receptors” (OncoMed Pharmaceuticals, Inc., priority 2008, dated 2012)

Columns and labels:
PE13 breast tumor cells = test: PE13 breast tumor xenograft growth; assay type: in vivo, NOD/SCID mice
Description: In certain embodiments, NOD/SCID mice injected with 50,000 PE13 or T3 breast tumor cells were treated with anti-Notch2/3 antibody 59R1 or control antibody 1B7.11 two days following cell injections. Antibodies were dosed at 10 mg/kg twice week.
In a further experiment, anti-Notch2/3 antibodies were tested for an effect on breast tumor growth. NOD/SCID mice were injected with 50,000 PE13 or T3 breast tumor cells, and tumors were allowed to grow to a size of between 65 to 200 mm^3 after which mice were randomized (n=10 per experimental group), and antibodies administration begun. Animals were treated with 15 mg/kg of either control 1B7.11 antibodies or anti-Notch2/3 59R1 antibodies twice weekly. Tumor size was measured twice weekly, and tumor volume was calculated as described (see Michieli et al., 2004).
The 59R1 IgG2 antibody was also tested in vivo in the breast tumor xenograft lines OMP-B34, OMP-B39, OMP-B44, PE13, and UM-T1, the pancreas tumor xenograft line OMP-PN8, and the colon tumor xenograft line OMP-C8. These tumor xenograft lines were established by adhering to procedures described in Al-Hajj et al., 2003, Proc. Natl. Acad. Sci. USA, 100:3983-3988. Female NOD/SCID immuno-compromised mice 7-10 weeks old were used for the establishment of the breast tumor xenografts and male NOD/SCID mice were used for the OMP-Pn8 and OMP-C8 tumor-models (Harlan, Indianapolis, Ind.). The 59R1 IgG2 antibody was also tested in vivo in a Colo-205 colon tumor xenograft model. Female immunodeficient bg/nu XID mice on a Swiss CD-1 background were used for the Colo-205 xenograft tumor model. In case of the breast cancer models, slow-releasing estrogen pellets (0.36 mg) had to be implanted. Mice were subcutaneously injected on the right flank with 50,000 (OMP-B34, OMP-B39, OMP-B44, PE13, and UM-T1) or 1×10^7 (Colo-205) viable cells, respectively, in a mixture of PBS (without magnesium or calcium) and Matrigel at a 1:1 ratio. The injected total volume per mouse was 200 μl with 50% being Matrigel. Once the tumor had reached a size between 65-200 mm^3, the mice were randomized. Antibodies were administered weekly and tumors measured twice weekly. LZ1 (a human antibody that recognizes lyzozyme) or 1B711 (a murine IgG1 antibody that recognizes the hapten trinitrophenol) was used as a control antibody for treatment of each tumor type. Tumor volume was calculated as described Al-Hajj et al. (2003). Data are expressed as the mean and the mean±S.E.M. Group means were compared using Student's two-tailed, unpaired t-test. […] All statistical analysis was performed using Microsoft EXCEL and Graph Pad PRISM.
In one embodiment, NOD/SCID mice were injected with PE13 breast tumor cells. The mice were treated with anti-Notch2/3 antibody 59R1, anti-Notch2/3 antibody 59R5, or control antibody. Antibodies were dosed at 15 mg/kg once per week in a “preventative” mode where dosing was initiated two days after cell injection.
In one embodiment, to evaluate the effect of 59R5 on cancer stem cells, a tumor recurrence study was carried out in the PE13 breast tumor model. NOD/SCID mice were injected with PE13 breast tumor cells. The tumors were allowed to grow for 40 days before treatments were initiated. The mice were treated with taxol at 15 mg/kg twice per week for 5 weeks, in combination with either control antibody or anti-Notch 2/3 antibody 59R5. After 5 weeks, the taxol treatments were stopped and the antibody treatments were continued.
Tumor volumes and p values for each experiment are shown relative to the control group. The PE13, C28 and Colo205 studies were carried out as described in Example 14. PN8 studies were carried out as described above. For the PN8 experiment, the control is gemcitabine alone and values for 59R1 and 59R5 are the combinations with gemcitabine. Antibodies were dosed once per week at 15 mg/kg for all experiments.

[1] = biological target: T1, human Notch1 with residues 382-386 mutated to the corresponding human Notch2 residues (Homo sapiens, UniProt P46531, E383K/N382H/N386L/S385A); test: FACS binding to mutant human Notch1 carrying Notch2 residues; settings: HEK 293 transiently transfected
T1 construct: several point mutants were created within full-length Notch1; expressed in transfected cells; host or cells: HEK 293, transient, co-transfected with GFP
Description: A comparison analysis of the EGF 10 regions of human Notch1, Notch2, and Notch4 and the EGF 9 region of human Notch3 (the equivalent of EGF 10 in the other Notch receptors) was performed to determine likely binding sites for 59R1 (FIG. 14A). As a result of the analysis, several point mutants were created within full-length Notch2, converting residues within EGF 10 to the corresponding amino acids in human Notch 1. Also, conversely, point mutations were made in hNotch1 EGF 10 converting residues to the corresponding hN2 residues. Mutants in full-length Notch sequences were generated by QuikChange® mutagenesis (Stratagene) and verified by sequencing. Binding to the mutants was determined by FACS analysis (FIGS. 14B and 14C). 59R1 was detected by PE-conjugated goat anti-human Fc gamma specific antibody (Jackson Immunochemicals, #109-116-170). […] The corresponding residues in hNotch3 are histidine 361, alanine 364, and isoleucine 365.
The binding epitope of 59R5 was determined. As was described in Example 3 for analysis of antibody 59R1, several point mutants were created within full-length Notch1, converting residues within EGF10 to the corresponding amino acids in human Notch 2. […] 59R1 and 59R5 were detected by PE-conjugated goat anti-human Fc gamma specific antibody (Jackson Immunochemicals, #109-116-170). […]

human Notch2 = human Notch2 (Homo sapiens, UniProt Q04721); test: FACS binding to transiently transfected HEK-293 cells, human Notch2; design: expressed in transfected cells; host or cells: HEK-293, stably transfected
Description: The ability of the 59R1 IgG2 antibody to cross-react with other Notch receptors was determined by FACS assay using HEK-293 cells transiently transfected with the human Notch1, Notch2, Notch3 or Notch4 expression plasmid and green fluorescent protein (GFP) as a transfection control. GFP positive cells indicated expression of the transgene. The 59R1 IgG2 was added to the cells at 2 μg/ml and detected by PE-conjugated goat anti-human Fc gamma specific (Jackson Immunochemicals). All Notch constructs were full length.
The binding epitope of 59R5 was determined. As was described in Example 3 for analysis of antibody 59R1, several point mutants were created within full-length Notch1, converting residues within EGF10 to the corresponding amino acids in human Notch 2. Mutants in full-length Notch sequences were generated by QuikChange® mutagenesis (Stratagene) and verified by sequencing. HEK 293 cells were transiently transfected with expression vectors encoding human Notch2, human Notch1, or human Notch1 with residues 382-386 mutated to the corresponding human Notch2 residues. Cells were also co-transfected with a plasmid encoding green fluorescent protein (GFP) to mark those cells that received transfected plasmid. […] 59R1 and 59R5 were detected by PE-conjugated goat anti-human Fc gamma specific antibody (Jackson Immunochemicals, #109-116-170). […]

T1 sequence (P46531 19-2555 N382H/E383K/S385A/N386L): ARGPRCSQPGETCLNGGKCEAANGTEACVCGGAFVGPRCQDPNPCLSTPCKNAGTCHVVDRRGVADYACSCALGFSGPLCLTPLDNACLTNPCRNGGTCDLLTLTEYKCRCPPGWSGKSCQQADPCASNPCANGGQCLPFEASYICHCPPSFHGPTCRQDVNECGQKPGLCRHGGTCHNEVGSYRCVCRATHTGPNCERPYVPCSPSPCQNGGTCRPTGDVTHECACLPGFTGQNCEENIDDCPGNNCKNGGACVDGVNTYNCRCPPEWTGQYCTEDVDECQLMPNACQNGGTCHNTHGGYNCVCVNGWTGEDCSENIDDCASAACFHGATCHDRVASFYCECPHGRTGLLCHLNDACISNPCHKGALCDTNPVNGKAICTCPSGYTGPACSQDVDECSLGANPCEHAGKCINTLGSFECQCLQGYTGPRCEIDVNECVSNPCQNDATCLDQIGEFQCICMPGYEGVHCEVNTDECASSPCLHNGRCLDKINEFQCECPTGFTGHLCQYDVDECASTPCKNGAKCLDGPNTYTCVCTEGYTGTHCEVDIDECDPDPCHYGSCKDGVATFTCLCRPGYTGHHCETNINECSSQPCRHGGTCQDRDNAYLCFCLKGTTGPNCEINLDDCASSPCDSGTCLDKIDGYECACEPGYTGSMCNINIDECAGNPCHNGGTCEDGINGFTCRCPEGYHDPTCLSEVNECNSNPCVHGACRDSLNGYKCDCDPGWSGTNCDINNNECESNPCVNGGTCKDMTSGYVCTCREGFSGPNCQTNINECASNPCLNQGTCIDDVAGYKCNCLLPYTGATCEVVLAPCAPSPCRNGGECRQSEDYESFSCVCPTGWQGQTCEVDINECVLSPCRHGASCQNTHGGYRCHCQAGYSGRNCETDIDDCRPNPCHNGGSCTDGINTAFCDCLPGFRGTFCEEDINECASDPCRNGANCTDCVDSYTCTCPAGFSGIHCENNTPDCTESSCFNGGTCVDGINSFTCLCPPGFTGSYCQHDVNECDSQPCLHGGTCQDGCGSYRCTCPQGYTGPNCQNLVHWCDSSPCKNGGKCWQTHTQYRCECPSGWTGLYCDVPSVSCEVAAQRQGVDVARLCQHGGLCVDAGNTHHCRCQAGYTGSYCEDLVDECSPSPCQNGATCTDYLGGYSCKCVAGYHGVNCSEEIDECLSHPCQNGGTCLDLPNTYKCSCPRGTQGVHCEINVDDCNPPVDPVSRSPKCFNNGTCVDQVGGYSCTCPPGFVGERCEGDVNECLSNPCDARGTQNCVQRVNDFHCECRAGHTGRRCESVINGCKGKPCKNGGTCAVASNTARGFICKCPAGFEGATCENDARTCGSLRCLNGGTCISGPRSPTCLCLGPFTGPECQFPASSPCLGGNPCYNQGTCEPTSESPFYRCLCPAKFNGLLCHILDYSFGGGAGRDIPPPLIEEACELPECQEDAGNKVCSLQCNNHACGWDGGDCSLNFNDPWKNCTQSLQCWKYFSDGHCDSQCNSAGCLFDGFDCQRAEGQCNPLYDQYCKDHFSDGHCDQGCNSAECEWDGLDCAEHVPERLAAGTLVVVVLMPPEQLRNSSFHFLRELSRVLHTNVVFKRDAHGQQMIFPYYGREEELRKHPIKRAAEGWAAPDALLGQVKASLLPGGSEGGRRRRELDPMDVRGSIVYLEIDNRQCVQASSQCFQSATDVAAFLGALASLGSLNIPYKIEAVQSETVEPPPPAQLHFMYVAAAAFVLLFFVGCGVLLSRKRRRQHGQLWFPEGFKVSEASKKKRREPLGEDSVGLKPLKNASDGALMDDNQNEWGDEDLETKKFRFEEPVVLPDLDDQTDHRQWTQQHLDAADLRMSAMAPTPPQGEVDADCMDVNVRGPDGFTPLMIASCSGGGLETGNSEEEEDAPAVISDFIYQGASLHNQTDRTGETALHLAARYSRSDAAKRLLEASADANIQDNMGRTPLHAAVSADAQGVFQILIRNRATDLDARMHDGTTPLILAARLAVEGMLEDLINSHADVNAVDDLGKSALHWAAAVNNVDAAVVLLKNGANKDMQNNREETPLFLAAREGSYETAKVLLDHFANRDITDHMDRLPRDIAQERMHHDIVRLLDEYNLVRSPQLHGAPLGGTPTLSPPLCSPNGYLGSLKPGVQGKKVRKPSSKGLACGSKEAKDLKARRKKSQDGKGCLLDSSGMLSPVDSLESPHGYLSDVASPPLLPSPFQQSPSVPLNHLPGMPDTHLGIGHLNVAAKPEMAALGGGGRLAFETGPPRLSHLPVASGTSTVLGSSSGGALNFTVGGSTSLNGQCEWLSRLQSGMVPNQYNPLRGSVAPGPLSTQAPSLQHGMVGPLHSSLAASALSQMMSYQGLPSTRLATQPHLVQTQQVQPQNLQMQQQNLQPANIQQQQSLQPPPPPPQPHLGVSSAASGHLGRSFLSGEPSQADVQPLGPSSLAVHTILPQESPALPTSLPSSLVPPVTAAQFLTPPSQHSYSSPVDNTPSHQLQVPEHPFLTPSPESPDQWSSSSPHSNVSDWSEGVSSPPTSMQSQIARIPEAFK
human Notch2, sequence (Q04721 26-2471): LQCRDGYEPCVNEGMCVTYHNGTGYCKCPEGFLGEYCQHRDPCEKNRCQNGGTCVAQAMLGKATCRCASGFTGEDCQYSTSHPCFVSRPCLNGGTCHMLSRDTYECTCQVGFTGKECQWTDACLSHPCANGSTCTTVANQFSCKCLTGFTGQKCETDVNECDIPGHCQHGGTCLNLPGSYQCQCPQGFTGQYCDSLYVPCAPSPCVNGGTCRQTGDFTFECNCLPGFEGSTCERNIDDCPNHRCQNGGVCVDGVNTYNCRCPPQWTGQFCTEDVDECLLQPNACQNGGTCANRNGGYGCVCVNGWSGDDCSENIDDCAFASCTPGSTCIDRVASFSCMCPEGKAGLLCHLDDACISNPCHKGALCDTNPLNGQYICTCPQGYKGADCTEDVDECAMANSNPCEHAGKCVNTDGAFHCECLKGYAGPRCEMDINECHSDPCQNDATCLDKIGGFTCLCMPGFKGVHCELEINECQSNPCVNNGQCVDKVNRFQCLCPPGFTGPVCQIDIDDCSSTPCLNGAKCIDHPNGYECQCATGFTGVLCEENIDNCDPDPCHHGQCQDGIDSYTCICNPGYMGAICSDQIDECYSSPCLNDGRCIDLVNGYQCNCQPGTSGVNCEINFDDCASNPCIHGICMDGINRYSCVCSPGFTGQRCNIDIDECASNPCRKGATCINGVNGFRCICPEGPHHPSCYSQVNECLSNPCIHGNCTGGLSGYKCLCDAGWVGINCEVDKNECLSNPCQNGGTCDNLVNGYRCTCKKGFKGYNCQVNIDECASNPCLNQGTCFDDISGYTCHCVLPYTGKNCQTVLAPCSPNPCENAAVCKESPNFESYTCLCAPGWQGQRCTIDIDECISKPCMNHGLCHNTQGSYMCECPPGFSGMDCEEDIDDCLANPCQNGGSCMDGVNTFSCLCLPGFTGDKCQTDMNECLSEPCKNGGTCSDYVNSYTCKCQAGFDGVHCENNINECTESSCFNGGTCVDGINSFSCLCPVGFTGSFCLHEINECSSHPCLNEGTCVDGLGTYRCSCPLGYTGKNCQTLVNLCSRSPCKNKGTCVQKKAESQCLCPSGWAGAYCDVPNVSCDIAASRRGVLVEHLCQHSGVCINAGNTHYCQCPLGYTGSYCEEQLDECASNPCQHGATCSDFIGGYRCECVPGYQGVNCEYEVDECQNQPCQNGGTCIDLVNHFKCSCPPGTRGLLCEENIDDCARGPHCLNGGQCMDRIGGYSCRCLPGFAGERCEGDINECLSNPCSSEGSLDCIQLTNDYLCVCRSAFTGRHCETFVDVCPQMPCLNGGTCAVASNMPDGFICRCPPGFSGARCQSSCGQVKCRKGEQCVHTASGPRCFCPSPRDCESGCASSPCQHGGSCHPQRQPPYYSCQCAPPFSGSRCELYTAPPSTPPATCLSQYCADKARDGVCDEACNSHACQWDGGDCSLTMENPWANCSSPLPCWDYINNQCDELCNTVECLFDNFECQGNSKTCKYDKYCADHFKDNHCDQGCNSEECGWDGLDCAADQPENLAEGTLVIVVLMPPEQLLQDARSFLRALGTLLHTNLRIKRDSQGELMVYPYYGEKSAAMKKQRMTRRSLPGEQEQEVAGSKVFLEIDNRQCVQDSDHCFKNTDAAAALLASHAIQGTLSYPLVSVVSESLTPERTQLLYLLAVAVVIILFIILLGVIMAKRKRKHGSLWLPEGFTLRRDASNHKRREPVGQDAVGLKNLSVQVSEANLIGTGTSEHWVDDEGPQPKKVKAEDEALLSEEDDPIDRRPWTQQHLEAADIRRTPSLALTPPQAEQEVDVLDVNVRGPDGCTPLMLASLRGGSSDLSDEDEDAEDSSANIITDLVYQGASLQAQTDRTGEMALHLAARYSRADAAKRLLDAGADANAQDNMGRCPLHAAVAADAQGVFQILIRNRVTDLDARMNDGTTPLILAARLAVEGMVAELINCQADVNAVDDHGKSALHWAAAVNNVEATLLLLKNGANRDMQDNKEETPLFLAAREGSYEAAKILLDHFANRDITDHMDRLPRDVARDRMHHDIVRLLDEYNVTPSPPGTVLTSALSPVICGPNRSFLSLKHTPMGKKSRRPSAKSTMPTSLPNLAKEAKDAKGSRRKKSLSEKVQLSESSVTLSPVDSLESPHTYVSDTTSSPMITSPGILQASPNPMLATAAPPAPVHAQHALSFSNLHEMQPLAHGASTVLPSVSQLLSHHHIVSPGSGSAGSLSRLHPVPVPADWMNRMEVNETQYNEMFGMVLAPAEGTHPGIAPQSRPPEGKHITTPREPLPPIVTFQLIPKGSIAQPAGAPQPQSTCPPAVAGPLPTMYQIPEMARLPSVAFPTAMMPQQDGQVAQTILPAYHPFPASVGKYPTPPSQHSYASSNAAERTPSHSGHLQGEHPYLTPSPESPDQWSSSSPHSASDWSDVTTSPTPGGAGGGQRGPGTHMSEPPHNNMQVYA

FACS binding to mutant hNotch1 with EGF 10 residues mutated to hNotch2 residues 385-389 [1]	binding to full-length human Notch2 (FACS) (human Notch2)	Substance	PE13 tumor growth compared to control (PE13 breast tumor cells; 10 mg/kg twice week, started two days following cell injections)	PE13 Tumor vol relative to the control group (PE13 breast tumor cells; 15 mg/kg once per week)	PE13 breast cancer growth relative to control antibody (PE13 breast tumor cells; established tumors, 15 mg/kg once a week)	PE13 tumor growth compared to control (PE13 breast tumor cells; established tumors, 15 mg/kg twice weekly)	inhibition of PE13 tumor growth (PE13 breast tumor cells; 15 mg/kg once per week, preventative mode (dosing two days after cell injection))	PE13 tumor recurrence after high-dose taxol treatment (PE13 breast tumor cells; taxol 15 mg/kg twice per week for 5 weeks plus antibody, then antibody only)
does bind	specifically binds	59R1: human IgG2 antibody binding Notch2 and Notch3; heavy and light chain SEQ ID NO:16 and 18; ATCC PTA-9547	significantly reduced	0.25	inhibit breast cancer growth	significantly reduced	–	–
able to bind	bound	59R5: human antibody that specifically binds human Notch 2 and human Notch 3; heavy and light chain SEQ ID NO:49 and 18; ATCC PTA-10170	–	0.18	–	–	greater than 80%	significantly delay tumor recurrence
